Results: patent US5922697A, “Compounds, compositions and methods for inhibiting the binding of proteins containing an SH2 domain to cognate phosphorylated proteins” (Warner-Lambert Company, priority 1998, dated 1999)
Read-outs that look alike come from different tables or passages of the source.

Experiments:
Src SH2 = biological target: T1, Src SH2 (Homo sapiens, UniProt P12931); assay: Inhibition of 125I-phosphopeptide binding to immobilized Src SH2; conditions: competitive 125I-phosphopeptide displacement, GST-Src SH2 fusion protein, pH 7.5, room temperature, 20 minutes
T1 construct: glutathione-S-transferase(GST)-Src SH2 fusion protein
Protocol: The binding affinities of compounds of the present invention to Src SH2 was determined using a competitive radiolabeled phosphopeptide displacement assay.
Binding was performed at room temperature for 20 minutes while continuously inverting the plate. […] Results are expressed as IC50 values in Table 1 below.

Abl SH2 = biological target: T2, Abl SH2 (Homo sapiens, UniProt P00519); assay: Inhibition of 125I-phosphopeptide binding to immobilized Abl SH2
T2 construct: glutathione-S-transferase(GST)-Abl SH2 fusion protein
T2 sequence (P00519 127-217 limits assumed): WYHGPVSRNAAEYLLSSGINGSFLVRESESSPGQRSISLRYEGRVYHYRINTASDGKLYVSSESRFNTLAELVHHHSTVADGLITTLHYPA
Protocol: The binding affinities of compounds of the present invention to Abl SH2 was determined using a competitive radiolabeled phosphopeptide displacement assay. […] Binding was performed at room temperature for 20 minutes while continuously inverting the plate.

[1] = IC50, Abl SH2 Binding, competitive 125I-phosphopeptide displacement, GST-Abl SH2 fusion protein, pH 7.5, room temperature, 20 minutes
[2] = read-out: IC50, SRC SH2 Binding
[3] = competitive 125I-phosphopeptide displacement, GST-Abl SH2 fusion protein, pH 7.5, room temperature, 20 minutes; read-out: IC50, Abl SH2 Binding

T1 sequence (P12931 151-248 limits assumed): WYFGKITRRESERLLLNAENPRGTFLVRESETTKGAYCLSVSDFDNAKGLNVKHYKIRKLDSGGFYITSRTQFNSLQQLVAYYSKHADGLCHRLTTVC

SMILES	IC50 (Src SH2; IC50, SRC SH2 Binding)	IC50 (Abl SH2; [1])	further results
CC(=O)N[C@@H](Cc1ccc(OP(=O)(O)O)cc1)C(=O)NCc1ccc(OC(C)CC2CCCCC2)c(C(N)=O)c1 (mixture of isomers) [Example 66, Phosphoric acid mono-(4-{(S)-2-acetylamino-2-[3-carbamoyl-4-(2-cyclohexyl-(RS)-1-methyl-ethoxy)-benzylcarbamoyl]-ethyl}-phenyl) ester]	3.8 µM	11 µM	–
CC(NC(=O)Nc1cccc2cc(OP(=O)(O)O)ccc12)c1ccc(OCC2CCCCC2)c(C(N)=O)c1 (racemic) [Example 75, (+/-)-Phosphoric acid mono-(5-{3-[1-(3-carbamoyl-4-cyclohexylmethoxy-phenyl)-ethyl]-ureido}-naphthalen-2-yl) ester]	7.2 µM	~60 µM	–
CCC(CC)(NC(=O)[C@H](Cc1ccc(OP(=O)(O)O)cc1)NC(C)=O)C(=O)NCCCc1ccccc1 [Example 57, (S)-Phosphoric acid mono-(4-{2-acetylamino-2-[1-ethyl-1-(3-phenyl-propylcarbamoyl)-propylcarbamoyl]-ethyl}-phenyl) ester]	33 µM	20 µM	–
CC(=O)N[C@@H](Cc1ccc(C(F)(F)P(=O)(O)O)cc1)C(=O)NC(C)c1ccc(OCC2CCCCC2)c(C(N)=O)c1 (single isomer, unassigned) [Example 63b, [S-(R*,R*)]- or [S-(R*,S*)]-[(4-{2-Acetylamino-2-[1-(3-carbamoyl-4-cyclohexylmethoxy-phenyl)-ethylcarbamoyl]-ethyl}-phenyl)-difluoro-methyl]-phosphonic acid]	–	–	IC50 (Src SH2; [2]): 29 µM; IC50 (Abl SH2; [3]): 59 µM
CN(CCCC1CCCCC1)C(=O)[C@H](CCC(=O)O)NC(=O)NCc1ccc(OP(=O)(O)O)cc1 [Example 61, (S)-4-[(3-Cyclohexyl-propyl)--methyl-carbamoyl]-4-[3-(4-phosphonooxy-benzyl)-ureido]-butyric acid]	16 µM	~100 µM	–
CN(CCCC1CCCCC1)C(=O)[C@H](CCC(=O)O)NC(=O)N(CC(=O)O)Cc1ccc(OP(=O)(O)O)cc1 [Example 35, (S)-4-[3-carboxymethyl-3-(4-phosphonooxy-benzyl)-ureido]-4-[(3-cyclohexyl-propyl)-methyl-carbamoyl]-butyric acid]	–	–	IC50 (Abl SH2; read-out: IC50, Abl SH2 Binding; competitive 125I-phosphopeptide displacement, GST-Abl SH2 fusion protein, pH 7.5, room temperature, 20 minutes): > 100 µM
NC(=O)c1cc(CNC(=O)NCc2ccc(OP(=O)(O)O)cc2)ccc1OCC1CCCCC1 [Example 76, Phosphoric acid mono-{4-[3-(3-carbamoyl-4-cyclohexylmethoxy-benzyl)-ureidomethyl]-phenyl} ester]	34 µM	> 100 µM	–
CN(C)C(=O)N[C@@H](Cc1ccc(OP(=O)(O)O)cc1)C(=O)N[C@@H](CCC(=O)O)C(=O)N(C)CCCC1CCCCC1 [Example 59, [S-(R*,R*)]-4-[(3-Cyclohexyl-propyl)-methyl-carbamoyl]-4-[2-(3,3-dimethyl-ureido)-3-(4-phosphonooxy-phenyl)-propionylaminol-butyric acid]	1.1 µM	4.5 µM	–
CN(CCCC1CCCCC1)C(=O)[C@H](CCC(=O)O)NC(=O)c1ccc(OP(=O)(O)O)cc1 [Example 62, (S)-4-[(3-Cyclohexyl-propyl)-methyl-carbamoyl]-4-(4-phosphonooxy-benzoylamino)-butyric acid]	8.3 µM	44 µM	–
CC(=O)N[C@@H](Cc1ccc(OP(=O)(O)O)cc1)C(=O)N[C@@H](CCC(=O)O)C(=O)NCCCc1cccc(OCC(N)=O)c1 [Example 24, [S-(R*,R*)]-4-[2-Acetylamino-3-(4-phosphonooxy-phenyl)-propionylamino]-4-[3-(3-carbamoylmethoxy-phenyl)-propylcarbamoyl]-butyric acid]	7.2 µM	36 µM	–
CC(=O)N[C@@H](Cc1ccc(OP(=O)(O)O)cc1)C(=O)NC(C)c1ccc(OC(C)CC2CCCCC2)c(C(N)=O)c1 (single isomer, unassigned) [Example 64b, Phosphoric acid mono-[4-(2-acetylamino-2-{1-[3-carbamoyl-4-(2-cyclohexyl-1-methyl-ethoxy)-phenyl]-ethylcarbamoyl}-ethyl)-phenyl] ester]	11 µM	14 µM	–
CC(=O)N[C@@H](Cc1ccc(OP(=O)(O)O)cc1)C(=O)N[C@@H](CCC(=O)O)C(=O)N1CCC[C@@H]1CCC1CCCCC1 [Example 12, 4-[(S)-2-Acetylamino-3-(4-phosphonooxy-phenyl)-(S)-propionylamino]-5-[2-((S)-2-cyclohexyl-ethyl)-pyrrolidin-1-yl]-5-oxo-pentanoic acid]	–	–	IC50 (Src SH2; [2]): 0.7 µM; IC50 (Abl SH2; [3]): 2.5 µM
CC(=O)N[C@@H](Cc1ccc(OP(=O)(O)O)cc1)C(=O)NC(Cc1ccccc1)c1ccc(OCC2CCCCC2)c(C(N)=O)c1 (mixture of isomers) [Example 67, Phosphoric acid mono-(4{(S)-2-acetylamino-2-[(RS)-1-(3-carbamoyl-4-cyclohexylmethoxy-phenyl)-2-phenyl-ethylcarbamoyl]-ethyl}-phenyl) ester]	1 µM	6 µM	–
CC(=O)N[C@@H](Cc1ccc(OP(=O)(O)O)cc1)C(=O)N[C@@H](CCC(=O)O)C(=O)N1CCC[C@@H]1CCc1ccccc1 [Example 11, 4-[(S)-2-Acetylamino-3-(4-phosphonooxy-phenyl)-(S)-propionylamino]-5-oxo-5-((S)-2-phenethyl-pyrrolidin-1-yl)-pentanoic acid]	–	–	IC50 (Src SH2; [2]): 2.1 µM; IC50 (Abl SH2; [3]): 17 µM
CC(=O)N[C@@H](Cc1ccc(P(=O)(O)O)cc1)C(=O)NC(C)c1ccc(OCC2CCCCC2)c(C(N)=O)c1 (mixture of isomers) [Example 73, (4-{(S)-2-Acetylamino-2-[(RS)-1-(3-carbamoyl-4-cyclohexylmethoxy-phenyl)-ethylcarbamoyl]-ethyl}-phenyl)-phosphonic acid]	–	–	IC50 (Src SH2; [2]): 8.6 µM; IC50 (Abl SH2; [3]): 26 µM
CC(=O)N[C@@H](Cc1ccc(OP(=O)(O)O)cc1)C(=O)N[C@@H](C)C(=O)N(CCCC(=O)O)CCCc1ccccc1 [Example 26, [S-(R*,R*)]-4-[{2-[2-Acetylamino-3-(4-phosphonooxy-phenyl)-propionylamino}-propionyl]-(3-phenyl-propyl)-amino]-butyric acid]	9.8 µM	–	–
CC(=O)N[C@@H](Cc1ccc(OP(=O)(O)O)cc1)C(=O)N[C@@H](CCC(=O)O)C(=O)N(C)[C@@H](C)CC1CCCCC1 [Example 3]	2.3 µM	–	–
Cc1cc(C)cc(COc2ccc(CNC(=O)c3ccc(OP(=O)(O)O)cc3)cc2C(N)=O)c1 [Example 41, Phosphoric acid mono-{4-[3-carbamoyl-4-(3,5-dimethyl-benzyloxy)-benzylcarbamoyl]-phenyl} ester]	6.6 µM	–	–
CC(=O)N[C@@H](Cc1ccc(OP(=O)(O)O)cc1)C(=O)N[C@@H](C)C(=O)N(CCCCC(=O)O)CCCc1ccccc1 [Example 27, [S-(R*,R*)]-5-[{2-[2-Acetylamino-3-(4-phosphonooxy-phenyl)-propionylamino]-propionyl}-(3-phenyl-propyl)-amino]-pentanoic acid]	8 µM	–	–
CC(=O)N[C@@H](Cc1ccc(C(F)(F)P(=O)(O)O)cc1)C(=O)NCc1ccc(OCC2CCCCC2)c(C(N)=O)c1 [Example 53, (S)-{4-[2-Acetylamino-2-(3-carbamoyl-4-cyclohexyl-methoxy-benzylcarbamoyl)-ethyl]-phenyl}-difluoro-methyl-phosphonic acid]	12.1 µM	–	–
CNC(=O)c1cc(CNC(=O)c2ccc(OP(=O)(O)O)cc2)ccc1OCC1CCCCC1 [Example 48, Phosphoric acid mono-[4-(4-cyclohexylmethoxy-3-methylcarbamoyl-benzylcarbamoyl)-phenyl] ester]	~30 µM	–	–
CC(=O)N[C@@H](Cc1ccc(OP(=O)(O)O)cc1)C(=O)N[C@@H](CCC(=O)O)C(=O)NCc1cccc2ccccc12 [Example 15, [S-(R*,R*)]-4-[2-Acetylamino-3-(4-phosphonooxy-phenyl)-propionylamino]-4-[(naphthalen-1-ylmethyl)-carbamoyl]-butyric acid]	7 µM	–	–
CC(=O)N[C@@H](Cc1ccc(OP(=O)(O)O)cc1)C(=O)N[C@@H](Cc1ccc(O)cc1)C(=O)NCCCc1ccccc1 [Example 20, [S-(R*,R*)]-Phosphoric acid mono-(4-{2-acetylamino-2-[2-(4-hydroxy-phenyl)-1-(3-phenyl-propylcarbamoyl)-ethyl-carbamoyl]-ethyl}-phenyl) ester]	–	–	IC50 (Src SH2; [2]): 20 µM
CS(=O)(=O)N[C@@H](Cc1ccc(OP(=O)(O)O)cc1)C(=O)N[C@@H](CCC(=O)O)C(=O)NCCCc1ccccc1 [Example 33, [S-(R*,R*)]-4-[2-Methanesulfonylamino-3-(4-phosphonooxy-phenyl)-propionylamino]-4-(3-phenyl-propylcarbamoyl)-butyric acid]	9.3 µM	–	–
CC(=O)N[C@@H](Cc1ccc(OP(=O)(O)O)cc1)C(=O)N[C@@H](CCC(=O)O)C(=O)N1CCC[C@H]1Cc1ccccc1 [Example 30]	5.5 µM	–	–
Cc1cccc(COc2ccc(CNC(=O)c3ccc(OP(=O)(O)O)cc3)cc2C(N)=O)c1 [Example 40, Phosphoric acid mono-{4-[3-carbamoyl-4-(3-methyl-benzyloxy)-benzylcarbamoyl]-phenyl} ester]	7 µM	–	–
